From patent US10988523B2, “Modified lipidated Relaxin B chain peptides and their therapeutic use” (Sanofi, priority 2018, dated 2021) come the findings set out here.

*1 amine or outer side, *2 acyl side, *3 side chain or, on linkers, in order; H or OH if unused. Where a SMILES comes first, the peptide text is derived from it. Side-chain parts run from the residue outwards. [ ]: non-standard residue; d: D form. The star is where a group is joined. Trp(5-OH) = N[C@@H](Cc1c[nH]c2ccc(O)cc12)C(=O)O; γGlu = O=C(O)[C@H](CCC(=O)[*:2])N[*:1]; Arg(Me) = CNC(=N)NCCC[C@H](N)C(=O)O; Stearoyl = CCCCCCCCCCCCCCCCCC(=O)*; Palmitoyl = CCCCCCCCCCCCCCCC(=O)*; αMeF = C[C@](N)(Cc1ccccc1)C(=O)O; αMeK = C[C@](N)(CCCCN)C(=O)O; Lauroyl = CCCCCCCCCCCC(=O)*; Nle = CCCC[C@H](N)C(=O)O; AEEA = NCCOCCOCC(=O)O; Aib = CC(C)(N)C(=O)O

This experiment has as its target T1, RXFP1 (Homo sapiens, UniProt Q9HBX9).
T1 construct: OVCAR5 cells expressing endogenous RXFP1; endogenous in cells; host or cells: OVCAR5 cells
T1 sequence (Q9HBX9 1-757): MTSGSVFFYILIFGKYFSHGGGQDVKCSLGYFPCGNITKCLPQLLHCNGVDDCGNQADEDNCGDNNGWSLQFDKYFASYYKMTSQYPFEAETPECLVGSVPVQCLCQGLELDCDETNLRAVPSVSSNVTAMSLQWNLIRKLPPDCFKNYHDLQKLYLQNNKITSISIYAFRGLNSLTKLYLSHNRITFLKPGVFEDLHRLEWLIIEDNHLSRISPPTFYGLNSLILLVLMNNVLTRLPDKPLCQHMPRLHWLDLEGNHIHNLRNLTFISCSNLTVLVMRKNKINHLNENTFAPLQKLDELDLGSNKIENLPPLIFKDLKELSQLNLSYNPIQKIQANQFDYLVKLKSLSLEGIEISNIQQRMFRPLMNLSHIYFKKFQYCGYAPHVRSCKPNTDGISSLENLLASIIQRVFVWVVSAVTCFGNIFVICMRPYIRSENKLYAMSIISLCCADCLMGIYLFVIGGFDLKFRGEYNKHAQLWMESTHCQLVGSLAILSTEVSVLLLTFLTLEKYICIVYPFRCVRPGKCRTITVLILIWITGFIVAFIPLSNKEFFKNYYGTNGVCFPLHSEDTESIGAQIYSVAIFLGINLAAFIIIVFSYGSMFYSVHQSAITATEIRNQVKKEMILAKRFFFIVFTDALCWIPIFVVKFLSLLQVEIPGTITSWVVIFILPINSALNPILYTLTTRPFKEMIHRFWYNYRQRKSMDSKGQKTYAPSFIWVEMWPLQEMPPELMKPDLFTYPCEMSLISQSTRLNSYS
In words: OVCAR5 cAMP assay (HTRF), RXFP1 agonist activity. In kind it is cell-based. Conditions: for EC50: OVCAR5 cells, cAMP HTRF, read-out: EC50 (nM), OVCAR 5 cells (cAMP); for Emax: OVCAR-5, maximal cAMP relative to H2-relaxin maximum (100%), read-out: EMax, OVCAR 5 cells (cAMP). In short, it runs like this: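 cAMP accumulation readout: after 1 mM IBMX for 40 min, endogenous-RXFP1 OVCAR5 cells got rising peptide concentrations without FCS, 30 min, 37° C, then lysis with HTRF cAMP reagents. Nonlinear regression gave EC50; Emax expressed relative to H2-relaxin maximum, same occasion.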
(In general: Changes in cAMP serve as a functional read-out for many G protein-coupled receptors.)

With `CCCCCCCCCCCCCCCC(=O)N[C@@H](CCC(=O)NCCCC[C@H](NC(=O)CC[C@H](NC(=O)CC[C@H](NC(=O)CC[C@H](NC(=O)COCCOCCNC(=O)COCCOCCNC(=O)COCCOCCNC(=O)COCCOCCNC(=O)[C@H](CCCCNC(C)=O)NC(=O)[C@H](C)NC(=O)[C@H](CCCNC(=N)NC)NC(=O)[C@](C)(CCCCN)NC(=O)[C@H](CO)NC(=O)[C@H](Cc1ccccc1)NC(=O)[C@@H](NC(=O)[C@H](CO)NC(=O)[C@H](CCCC)NC(=O)CNC(=O)[C@H](CCC(=O)O)NC(=O)C(C)(C)NC(=O)C(C)(C)NC(=O)[C@@H](NC(=O)[C@H](CCCCNC(C)=O)NC(=O)[C@H](C)NC(=O)[C@H](CCCNC(=N)N)NC(=O)[C@@H](NC(=O)[C@H](CCCCN)NC(=O)[C@H](CCC(=O)O)NC(=O)[C@H](CCCNC(=N)N)NC(=O)CNC(=O)[C@H](CCC(=O)O)NC(=O)[C@H](CC(C)C)NC(C)=O)C(C)C)[C@@H](C)CC)[C@@H](C)O)C(=O)O)C(=O)O)C(=O)O)C(N)=O)C(=O)O` [compound 151] (Ac-LEGREKVRAK(Ac)I[Aib][Aib]EG[Nle]STFS[αMeK][Arg(Me)]AK(Ac)[AEEA][AEEA][AEEA][AEEA][γGlu][γGlu][γGlu]K([γGlu-Palmitoyl])-NH2), the EC50 turned out to be 0.14 nM and the Emax worked out at 90%.

Consider `CCCCCCCCCCCCCCCC(=O)N[C@@H](CCC(=O)NCCCC[C@H](NC(=O)CC[C@H](NC(=O)CC[C@H](NC(=O)CC[C@H](NC(=O)COCCOCCNC(=O)COCCOCCNC(=O)COCCOCCNC(=O)COCCOCCNC(=O)[C@H](CCCCNC(C)=O)NC(=O)[C@H](CCCCN)NC(=O)[C@H](CCCNC(=N)N)NC(=O)[C@](C)(CCCCN)NC(=O)[C@H](CO)NC(=O)[C@](C)(Cc1ccccc1)NC(=O)[C@@H](NC(=O)[C@H](CO)NC(=O)[C@H](CCCC)NC(=O)CNC(=O)[C@H](CCC(=O)O)NC(=O)C(C)(C)NC(=O)C(C)(C)NC(=O)[C@@H](NC(=O)[C@H](CCCCNC(C)=O)NC(=O)[C@H](C)NC(=O)[C@H](CCCNC(=N)N)NC(=O)[C@@H](NC(=O)[C@H](CCCCN)NC(=O)[C@H](CCC(=O)O)NC(=O)[C@H](CCCNC(=N)N)NC(=O)CNC(=O)[C@H](CCC(=O)O)NC(=O)[C@H](CC(C)C)NC(C)=O)C(C)C)[C@@H](C)CC)[C@@H](C)O)C(=O)O)C(=O)O)C(=O)O)C(N)=O)C(=O)O` [compound 152] (Ac-LEGREKVRAK(Ac)I[Aib][Aib]EG[Nle]ST[αMeF]S[αMeK]RKK(Ac)[AEEA][AEEA][AEEA][AEEA][γGlu][γGlu][γGlu]K([γGlu-Palmitoyl])-NH2), for which the Emax is 91%.

Regarding `CCCCCCCCCCCCCCCC(=O)N[C@@H](CCC(=O)N[C@@H](CCC(=O)N[C@@H](CCC(=O)NCCOCCOCC(=O)NCCOCCOCC(=O)NCCOCCOCC(=O)NCCOCCOCC(=O)NCCCC[C@H](NC(=O)[C@H](CCCCNC(C)=O)NC(=O)[C@H](CCCCN)NC(=O)[C@H](CCCNC(=N)N)NC(=O)C(C)(C)NC(=O)[C@H](CO)NC(=O)[C@H](Cc1ccccc1)NC(=O)[C@@H](NC(=O)[C@H](CO)NC(=O)[C@H](CCCC)NC(=O)CNC(=O)[C@H](CCC(=O)O)NC(=O)C(C)(C)NC(=O)C(C)(C)NC(=O)[C@@H](NC(=O)[C@H](CCCCNC(C)=O)NC(=O)[C@H](C)NC(=O)[C@H](CCCNC(=N)N)NC(=O)[C@@H](NC(=O)[C@H](CCCCN)NC(=O)[C@H](CCC(=O)O)NC(=O)[C@H](CCCNC(=N)N)NC(=O)CNC(=O)[C@H](CCC(=O)O)NC(=O)[C@H](CC(C)C)NC(C)=O)C(C)C)[C@@H](C)CC)[C@@H](C)O)C(N)=O)C(=O)O)C(=O)O)C(=O)O` [compound 153] (Ac-LEGREKVRAK(Ac)I[Aib][Aib]EG[Nle]STFS[Aib]RKK(Ac)K([AEEA-AEEA-AEEA-AEEA-γGlu-γGlu-γGlu-Palmitoyl])-NH2), the EC50 was 0.26 nM and the Emax stood at 89%.

Consider `CCCCCCCCCCCCCCCCCC(=O)N[C@@H](CCC(=O)N[C@@H](CCC(=O)N[C@@H](CCC(=O)NCCOCCOCC(=O)NCCOCCOCC(=O)NCCOCCOCC(=O)NCCCC[C@H](NC(=O)[C@H](CCCCNC(C)=O)NC(=O)[C@H](C)NC(=O)[C@H](C)NC(=O)C(C)(C)NC(=O)[C@H](CO)NC(=O)[C@H](Cc1c[nH]c2ccccc12)NC(=O)[C@@H](NC(=O)[C@H](CO)NC(=O)[C@H](CCCC)NC(=O)CNC(=O)[C@H](CCC(=O)O)NC(=O)C(C)(C)NC(=O)C(C)(C)NC(=O)[C@@H](NC(=O)[C@H](CCCCNC(C)=O)NC(=O)[C@H](C)NC(=O)[C@H](CCCNC(=N)N)NC(=O)[C@@H](NC(=O)[C@H](CCCCN)NC(=O)[C@H](CCC(=O)O)NC(=O)[C@H](CCCNC(=N)N)NC(=O)CNC(=O)[C@H](CCC(=O)O)NC(=O)[C@H](CC(C)C)NC(C)=O)C(C)C)[C@@H](C)CC)[C@@H](C)O)C(N)=O)C(=O)O)C(=O)O)C(=O)O` [compound 155] (Ac-LEGREKVRAK(Ac)I[Aib][Aib]EG[Nle]STWS[Aib]AAK(Ac)K([AEEA-AEEA-AEEA-γGlu-γGlu-γGlu-Stearoyl])-NH2), for which the Emax came out at 95%.

For the compound `CCCCCCCCCCCCCCCCCC(=O)N[C@@H](CCC(=O)N[C@@H](CCC(=O)N[C@@H](CCC(=O)NCCOCCOCC(=O)NCCOCCOCC(=O)NCCOCCOCC(=O)NCCCC[C@H](NC(=O)[C@H](CCCCNC(C)=O)NC(=O)[C@H](CCCCN)NC(=O)[C@H](CCCNC(=N)N)NC(=O)C(C)(C)NC(=O)[C@H](CO)NC(=O)[C@H](Cc1c[nH]c2ccc(O)cc12)NC(=O)[C@@H](NC(=O)[C@H](CO)NC(=O)[C@H](CCCC)NC(=O)CNC(=O)[C@H](CCC(=O)O)NC(=O)C(C)(C)NC(=O)C(C)(C)NC(=O)[C@@H](NC(=O)[C@H](CCCCNC(C)=O)NC(=O)[C@H](C)NC(=O)[C@H](CCCNC(=N)N)NC(=O)[C@@H](NC(=O)[C@H](CCCCN)NC(=O)[C@H](CCC(=O)O)NC(=O)[C@H](CCCNC(=N)N)NC(=O)CNC(=O)[C@H](CCC(=O)O)NC(=O)[C@H](CC(C)C)NC(C)=O)C(C)C)[C@@H](C)CC)[C@@H](C)O)C(N)=O)C(=O)O)C(=O)O)C(=O)O` [compound 158] (Ac-LEGREKVRAK(Ac)I[Aib][Aib]EG[Nle]ST[Trp(5-OH)]S[Aib]RKK(Ac)K([AEEA-AEEA-AEEA-γGlu-γGlu-γGlu-Stearoyl])-NH2), the EC50 is 0.14 nM and the Emax was determined as 90%.

Turning to `CCCCCCCCCCCCCCCC(=O)N[C@@H](CCC(=O)N[C@@H](CCC(=O)NCCCC[C@H](NC(=O)CC[C@H](NC(=O)CC[C@H](NC(=O)COCCOCCNC(=O)COCCOCCNC(=O)COCCOCCNC(=O)COCCOCCNC(=O)[C@H](CCCCNC(C)=O)NC(=O)[C@H](CCCCN)NC(=O)[C@H](CCCNC(=N)N)NC(=O)[C@](C)(CCCCN)NC(=O)[C@H](CO)NC(=O)[C@H](Cc1ccccc1)NC(=O)[C@@H](NC(=O)[C@H](CO)NC(=O)[C@H](CCCC)NC(=O)CNC(=O)[C@H](CCC(=O)O)NC(=O)C(C)(C)NC(=O)C(C)(C)NC(=O)[C@@H](NC(=O)[C@H](CCCCNC(C)=O)NC(=O)[C@H](C)NC(=O)[C@H](CCCNC(=N)N)NC(=O)[C@@H](NC(=O)[C@H](CCCCN)NC(=O)[C@H](CCC(=O)O)NC(=O)[C@H](CCCNC(=N)N)NC(=O)CNC(=O)[C@H](CCC(=O)O)NC(=O)[C@H](CC(C)C)NC(C)=O)C(C)C)[C@@H](C)CC)[C@@H](C)O)C(=O)O)C(=O)O)C(N)=O)C(=O)O)C(=O)O` [compound 159] (Ac-LEGREKVRAK(Ac)I[Aib][Aib]EG[Nle]STFS[αMeK]RKK(Ac)[AEEA][AEEA][AEEA][AEEA][γGlu][γGlu]K([γGlu-γGlu-Palmitoyl])-NH2), the EC50 came out at 0.02 nM and the Emax was 88%.

For the compound `CCCCCCCCCCCC(=O)N[C@@H](CCC(=O)N[C@@H](CCC(=O)N[C@@H](CCC(=O)N[C@@H](CCC(=O)NCCCC[C@H](NC(=O)COCCOCCNC(=O)COCCOCCNC(=O)COCCOCCNC(=O)COCCOCCNC(=O)[C@H](CCCCNC(C)=O)NC(=O)[C@H](C)NC(=O)[C@H](CCCNC(=N)N)NC(=O)[C@](C)(CCCCN)NC(=O)[C@H](CO)NC(=O)[C@H](Cc1ccccc1)NC(=O)[C@@H](NC(=O)[C@H](CO)NC(=O)[C@H](CCC(N)=O)NC(=O)CNC(=O)[C@H](CCC(=O)O)NC(=O)C(C)(C)NC(=O)C(C)(C)NC(=O)[C@@H](NC(=O)[C@H](CCCCNC(C)=O)NC(=O)[C@H](C)NC(=O)[C@H](CCCNC(=N)N)NC(=O)[C@@H](NC(=O)[C@H](CCCCN)NC(=O)[C@H](CCC(=O)O)NC(=O)[C@H](CCCNC(=N)N)NC(=O)CNC(=O)[C@H](CCC(=O)O)NC(=O)[C@H](CC(C)C)NC(C)=O)C(C)C)[C@@H](C)CC)[C@@H](C)O)C(N)=O)C(=O)O)C(=O)O)C(=O)O)C(=O)O` [compound 161] (Ac-LEGREKVRAK(Ac)I[Aib][Aib]EGQSTFS[αMeK]RAK(Ac)[AEEA][AEEA][AEEA][AEEA]K([γGlu-γGlu-γGlu-γGlu-Lauroyl])-NH2), the Emax was 94%.

What is called EC50 is the concentration at which the effect is half-maximal. One may read the Emax as the size of the effect at its maximum, as opposed to the concentration needed.
